# According to patent US7932262B2 (Novartis AG, priority 2006, dated 2011):
# Assays:
# [1] = test system: A2780 cells; test: Cell Proliferation Assay (Cell Titer Glo), A2780; type: cell-based; conditions: Homo sapiens; cell proliferation, A2780 cells; read-out: CPEC50 A2780
# How it was run: (§1)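 Cells seeded at 1000/well, allowed to adhere 3-5 h, then exposed to DMSO-dissolved compounds for 3 days at 37° C., 5% CO2. Medium replaced before Cell Titer Glo addition; luminescence read after 10 min.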
# [2] = test system: PC3MM cells; test: Cell Proliferation Assay (Cell Titer Glo), PC3MM; type: cell-based; conditions: cell proliferation, PC3MM cells; read-out: CPEC50 PC3MM
# How it was run: as §1
# [3] = target: T1, PDK1 kinase (Homo sapiens, UniProt O15530); test: PDK1 Kinase Alpha Screen Assay; type: biochemical; conditions: PDK1 Kinase Alpha Screen Assay; read-out: PDK1 IC50
# T1 sequence (O15530 1-556): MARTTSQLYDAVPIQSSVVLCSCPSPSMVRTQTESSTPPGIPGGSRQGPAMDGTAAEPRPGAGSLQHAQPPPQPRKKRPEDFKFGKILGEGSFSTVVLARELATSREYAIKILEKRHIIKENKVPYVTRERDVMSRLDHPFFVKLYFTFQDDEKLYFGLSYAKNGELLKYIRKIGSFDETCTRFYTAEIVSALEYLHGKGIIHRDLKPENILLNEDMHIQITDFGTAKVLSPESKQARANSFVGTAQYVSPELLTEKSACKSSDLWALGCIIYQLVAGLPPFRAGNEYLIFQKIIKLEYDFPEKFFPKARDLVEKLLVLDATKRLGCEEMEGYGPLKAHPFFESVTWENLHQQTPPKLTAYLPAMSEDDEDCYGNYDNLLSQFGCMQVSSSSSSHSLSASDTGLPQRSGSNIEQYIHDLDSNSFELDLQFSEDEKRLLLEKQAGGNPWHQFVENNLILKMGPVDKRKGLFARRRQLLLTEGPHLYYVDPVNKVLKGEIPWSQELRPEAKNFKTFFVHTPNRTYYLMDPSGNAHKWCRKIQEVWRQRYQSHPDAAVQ
# How it was run: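 Biotinylated PDK1-4 peptide (50 nM) phosphorylated by PDK1 with 10 uM ATP in pH 7.5 Tris/MgCl2/DTT buffer, 2.5% DMSO, for 3-18 hours. EDTA stop, then AlphaScreen detection with phospho-(Ser/Thr) PKA substrate antibody and protein A/streptavidin beads after overnight room-temperature development.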
Structure (SMILES),EC50 [1] [µM],EC50 [2] [µM],IC50 [3] [µM]
"COCCN1CCN(C(=O)c2ccc3cnc(Nc4ccc(S(N)(=O)=O)cc4)nc3c2)CC1 [Compound 764, 4-(7-(4-(2-methoxyethyl)piperazine-1-carbonyl)quinazolin-2-ylamino)benzenesulfonamide]",5 to 10,10 to 25,10 to 25
"COc1cc(-c2cccc3cnc(Nc4ccc(S(N)(=O)=O)cc4)nc23)c(Cl)cn1 [Compound 765, 4-(8-(5-chloro-2-methoxypyridin-4-yl)quinazolin-2-ylamino)benzenesulfonamide]",< 5,< 5,< 5
"CC(C)N1CCN(C(=O)c2ccc3cnc(Nc4ccc(S(N)(=O)=O)cc4)nc3c2)CC1 [Compound 766, 4-(7-(4-isopropylpiperazine-1-carbonyl)quinazolin-2-ylamino)benzenesulfonamide]",5 to 10,10 to 25,< 5
"CN1CCC(NC(=O)c2ccc3cnc(Nc4ccc(S(N)(=O)=O)cc4)nc3c2)CC1 [Compound 767, N-(1-methylpiperidin-4-yl)-2-(4-sulfamoylphenylamino)quinazoline-7-carboxamide]",5 to 10,< 5,< 5
"NS(=O)(=O)c1ccc(Nc2ncc3cccc(C(=O)N4CCOCC4)c3n2)cc1 [Compound 768, 4-(8-(morpholine-4-cartbonyl)quinazolin-2-ylamino)benzenesulfonamide]",5 to 10,5 to 10,5 to 10
"CN1CCN(C(=O)c2cccc3cnc(Nc4ccc(S(N)(=O)=O)cc4)nc23)CC1 [Compound 769, 4-(8-(4-methylpiperazine-1-carbonyl)quinazolin-2-ylamino)benzenesulfonamide]",5 to 10,< 5,< 5
NS(=O)(=O)c1ccc(Nc2ncc3cccc(C(=O)N4CCS(=O)(=O)CC4)c3n2)cc1 [Compound 770],5 to 10,10 to 25,10 to 25
NC(=O)c1cccc(-c2ccc3cnc(Nc4ccc(S(N)(=O)=O)cc4)nc3c2)c1 [Compound 782],5 to 10,< 5,< 5
"NC(=O)c1ccc(-c2ccc3cnc(Nc4ccc(S(N)(=O)=O)cc4)nc3c2)cc1 [Compound 783, 4-(2-(4-sulfamoylphenylamino)quinazolin-7-yl)benzamide]",5 to 10,< 5,< 5
"NS(=O)(=O)c1ccc(Nc2ncc3ccc(-c4cccc(S(N)(=O)=O)c4)cc3n2)cc1 [Compound 786, 3-(2-(4-sulfamoylphenylamino)quinazolin-7-yl)benzenesulfonamide]",5 to 10,< 5,< 5
"Nc1ccc(-c2ccc3cnc(Nc4ccc(S(N)(=O)=O)cc4)nc3c2)cn1 [Compound 789, 4-(7-(6-aminopyridin-3-yl)quinazolin-2-ylamino)benzenesulfonamide]",< 5,< 5,< 5
"NC(=O)c1ccc(-c2ccc3cnc(Nc4ccc(S(N)(=O)=O)cc4)nc3c2)cn1 [Compound 790, 5-(2-(4-sulfamoylphenylamino)quinazolin-7-yl)picolinamide]",5 to 10,< 5,< 5
"NS(=O)(=O)c1ccc(Nc2ncc3ccc(-c4cn[nH]c4)cc3n2)cc1 [Compound 792, 4-(7-(1H-pyrazol-4-yl)quinazolin-2-ylamino)benzenesulfonamide]",< 5,< 5,< 5
"NS(=O)(=O)c1ccc(Nc2ncc3ccc(-c4cccnc4)cc3n2)cc1 [Compound 793, 4-(7-(pyridin-3-yl)quinazolin-2-ylamlno)benzenesulfonamide]",< 5,< 5,< 5
"CN1CCN(C(=O)c2ccc3cnc(Nc4ccc(S(N)(=O)=O)cc4)nc3c2)CC1 [Compound 798, 4-(7-(4-methylpiperazine-1-carbonyl)quinazolin-2-ylamino)benzenesulfonamide]",5 to 10,10 to 25,10 to 25
"COc1cncc(-c2ccc3cnc(Nc4ccc(S(N)(=O)=O)cc4)nc3c2)c1 [Compound 801, 4-(7-(5-methoxypyridin-3-yl)quinazolin-2-ylamino)benzenesulfonamide]",< 5,< 5,< 5

# The remaining lines, values ahead:
EC50 [1] [µM],EC50 [2] [µM],IC50 [3] [µM],Structure (SMILES)
5 to 10,< 5,< 5,"NS(=O)(=O)c1ccc(Nc2ncc3cccc(C(=O)N4CCCC4)c3n2)cc1 [Compound 760, 4-(8-(pyrrolidine-1-carbonyl)quinazolin-2-ylamino)benzenesulfonamide]"
< 5,5 to 10,< 5,"COCCNC(=O)c1cccc2cnc(Nc3ccc(S(N)(=O)=O)cc3)nc12 [Compound 761, N-(2-methoxyethyl)-2-(4-sulfamoylphenylamino)quinazoline-8-carboxamide]"
< 5,5 to 10,< 5,"NS(=O)(=O)c1ccc(Nc2ncc3cccc(C(=O)NCCN4CCCC4)c3n2)cc1 [Compound 762, N-(2-(pyrrolidin-1-yl)ethyl)-2-(4-sulfamoylphenylamino)quinazoline-8-carboxamide]"
< 5,< 5,< 5,"O=S(=O)(c1cccc(Nc2ncc3cccc(OC4CCNCC4)c3n2)c1)N1CCOCC1 [Compound 773, N-(3-(morpholinosulfonyl)phenyl)-8-(piperidin-4-yloxy)quinazolin-2-amine]"
< 5,< 5,< 5,"CC(C)N1CCC(Oc2cccc3cnc(Nc4cccc(S(=O)(=O)N5CCOCC5)c4)nc23)CC1 [Compound 774, 8-(1-isopropylpiperidin-4-yloxy)-N-(3-(morpholinosulfonyl)phenyl)quinazolin-2-amine]"
5 to 10,< 5,< 5,"CN1CCN(S(=O)(=O)c2cccc(Nc3ncc4cccc(OC5CCNCC5)c4n3)c2)CC1 [Compound 775, N-(3-(4-methylpiperazin-1-ylsulfonyl)phenyl)-8-(piperidin-4-yloxy)quinazolin-2-amine]"
< 5,< 5,< 5,"CC(C)NS(=O)(=O)c1cccc(Nc2ncc3cccc(OC4CCNCC4)c3n2)c1 [Compound 776, N-isopropyl-3-(8-(piperidin-4-yloxy)quinazolin-2-ylamino)benzenesulfonamide]"
5 to 10,< 5,< 5,"COCCNS(=O)(=O)c1cccc(Nc2ncc3cccc(OC4CCNCC4)c3n2)c1 [Compound 777, N-(2-methoxyethyl)-3-(8-(piperidin-4-yloxy)quinazolin-2-ylamino)benzenesulfonamide]"
< 5,< 5,< 5,"CN1CCN(S(=O)(=O)c2ccc(Nc3ncc4cccc(OC5CCNCC5)c4n3)cc2)CC1 [Compound 778, N-(4-(4-methylpiperazin-1-ylsulfonyl)phenyl)-8-(piperidin-4-yloxy)quinazolin-2-amine]"
< 5,< 5,< 5,"CNC(=O)c1ccc(Nc2ncc3cccc(OC4CCN(C(C)C)CC4)c3n2)cc1 [Compound 796, 4-(8-(1-isopropylpiperidin-4-yloxy)quinazolin-2-ylamino)-N-methylbenzamide]"
